From ChEMBL document CHEMBL2202954, “The effect of PLC-γ2 inhibitors on the growth of human tumour cells” (2012)

What was measured:
Format in all cases: functional
MOLT-4 = test: Cytotoxicity against human MOLT4 cells assessed as cellular growth at 10 uM by SRB assay
786-0 = test: Cytotoxicity against human 786-0 cells assessed as cellular growth at 10 uM by SRB assay
MCF7 = test: Cytotoxicity against human MCF7 cells assessed as cellular growth at 10 uM by SRB assay
HOP-62 = test: Cytotoxicity against human HOP62 cells assessed as cellular growth at 10 uM by SRB assay
M14 = test: Cytotoxicity against human M14 cells assessed as cellular growth at 10 uM by SRB assay
SR = test: Cytotoxicity against human SR cells assessed as cellular growth at 10 uM by SRB assay
NCI-H522 = test: Cytotoxicity against human NCI-H522 cells assessed as cellular growth at 10 uM by SRB assay
SF-539 = test: Cytotoxicity against human SF539 cells assessed as cellular growth at 10 uM by SRB assay
IGROV-1 = test: Cytotoxicity against human IGROV1 cells assessed as cellular growth at 10 uM by SRB assay
[1] = Cytotoxicity against human NCI-ADR-RES cells assessed as cellular growth at 10 uM by SRB assay
BT-549 = test: Cytotoxicity against human BT549 cells assessed as cellular growth at 10 uM by SRB assay
Malme-3M = test: Cytotoxicity against human MALME-3M cells assessed as cellular growth at 10 uM by SRB assay
TK-10 = test: Cytotoxicity against human TK10 cells assessed as cellular growth at 10 uM by SRB assay
OVCAR-3 = test: Cytotoxicity against human OVCAR3 cells assessed as cellular growth at 10 uM by SRB assay
HCT-116 = test: Cytotoxicity against human HCT116 cells assessed as cellular growth at 10 uM by SRB assay
T47D = test: Cytotoxicity against human T47D cells assessed as cellular growth at 10 uM by SRB assay
MDA-MB-435 = test: Cytotoxicity against human MDA-MB-435 cells assessed as cellular growth at 10 uM by SRB assay
SNB-19 = test: Cytotoxicity against human SNB19 cells assessed as cellular growth at 10 uM by SRB assay
MDA-MB-468 = test: Cytotoxicity against human MDA-MB-468 cells assessed as cellular growth at 10 uM by SRB assay
SF-268 = test: Cytotoxicity against human SF268 cells assessed as cellular growth at 10 uM by SRB assay
A498 = test: Cytotoxicity against human A498 cells assessed as cellular growth at 10 uM by SRB assay
SK-MEL-5 = test: Cytotoxicity against human SK-MEL-5 cells assessed as cellular growth at 10 uM by SRB assay
SN12C = test: Cytotoxicity against human SN12C cells assessed as cellular growth at 10 uM by SRB assay
MDA-MB-231 = test: Cytotoxicity against human MDA-MB-231 cells assessed as cellular growth at 10 uM by SRB assay
HCT-15 = test: Cytotoxicity against human HCT15 cells assessed as cellular growth at 10 uM by SRB assay
A549 = test: Cytotoxicity against human A549 cells assessed as cellular growth at 10 uM by SRB assay
RXF 393 = test: Cytotoxicity against human RXF393 cells assessed as cellular growth at 10 uM by SRB assay
SK-OV-3 = test: Cytotoxicity against human SKOV3 cells assessed as cellular growth at 10 uM by SRB assay
COLO 205 = test: Cytotoxicity against human COLO205 cells assessed as cellular growth at 10 uM by SRB assay
UACC-62 = test: Cytotoxicity against human UACC62 cells assessed as cellular growth at 10 uM by SRB assay
NCI-H23 = test: Cytotoxicity against human NCI-H23 cells assessed as cellular growth at 10 uM by SRB assay
NCI-H226 = test: Cytotoxicity against human NCI-H226 cells assessed as cellular growth at 10 uM by SRB assay
SW-620 = test: Cytotoxicity against human SW620 cells assessed as cellular growth at 10 uM by SRB assay
PC-3 = test: Cytotoxicity against human PC3 cells assessed as cellular growth at 10 uM by SRB assay
HT-29 = test: Cytotoxicity against human HT-29 cells assessed as cellular growth at 10 uM by SRB assay
LOX IMVI = test: Cytotoxicity against human LOXIMVI cells assessed as cellular growth at 10 uM by SRB assay
Hs-578T = test: Cytotoxicity against human Hs578T cells assessed as cellular growth at 10 uM by SRB assay
RPMI-8226 = test: Cytotoxicity against human RPMI8226 cells assessed as cellular growth at 10 uM by SRB assay
KM12 = test: Cytotoxicity against human KM12 cells assessed as cellular growth at 10 uM by SRB assay
CAKI-1 = test: Cytotoxicity against human Caki1 cells assessed as cellular growth at 10 uM by SRB assay
OVCAR-8 = test: Cytotoxicity against human OVCAR8 cells assessed as cellular growth at 10 uM by SRB assay
NCI-H322M = test: Cytotoxicity against human NCI-H322M cells assessed as cellular growth at 10 uM by SRB assay
ACHN = test: Cytotoxicity against human ACHN cells assessed as cellular growth at 10 uM by SRB assay
SF-295 = test: Cytotoxicity against human SF295 cells assessed as cellular growth at 10 uM by SRB assay
K562 = test: Cytotoxicity against human K562 cells assessed as cellular growth at 10 uM by SRB assay
SK-MEL-28 = test: Cytotoxicity against human SK-MEL-28 cells assessed as cellular growth at 10 uM by SRB assay
HCC 2998 = test: Cytotoxicity against human HCC2998 cells assessed as cellular growth at 10 uM by SRB assay
U-251 = test: Cytotoxicity against human U251 cells assessed as cellular growth at 10 uM by SRB assay
HL-60(TB) = test: Cytotoxicity against human HL-60(TB) cells assessed as cellular growth at 10 uM by SRB assay
CCRF-CEM = test: Cytotoxicity against human CCRF-CEM cells assessed as cellular growth at 10 uM by SRB assay
SNB-75 = test: Cytotoxicity against human SNB75 cells assessed as cellular growth at 10 uM by SRB assay
UO-31 = test: Cytotoxicity against human UO31 cells assessed as cellular growth at 10 uM by SRB assay
DU-145 = test: Cytotoxicity against human DU145 cells assessed as cellular growth at 10 uM by SRB assay
SK-MEL-2 = test: Cytotoxicity against human SK-MEL-2 cells assessed as cellular growth at 10 uM by SRB assay
EKVX = test: Cytotoxicity against human EKVX cells assessed as cellular growth at 10 uM by SRB assay
NCI-H460 = test: Cytotoxicity against human NCI-H460 cells assessed as cellular growth at 10 uM by SRB assay
UACC-257 = test: Cytotoxicity against human UACC257 cells assessed as cellular growth at 10 uM by SRB assay

Structure (SMILES): Clc1cccc(-c2nc(-c3cccs3)no2)c1
- Activity (MOLT-4): 96.35%
- Activity (786-0): 94.52%
- Activity (MCF7): 33.74%
- Activity (HOP-62): 85.92%
- Activity (M14): 105.36%
- Activity (SR): 100.52%
- Activity (NCI-H522): 85.77%
- Activity (SF-539): 102.16%
- Activity (IGROV-1): 77.14%
- Activity [1]: 103.45%
- Activity (BT-549): 101.91%
- Activity (Malme-3M): 111.38%
- Activity (TK-10): 74.63%
- Activity (OVCAR-3): 102.94%
- Activity (HCT-116): 97.8%
- Activity (T47D): 56.93%
- Activity (MDA-MB-435): 106.73%
- Activity (SNB-19): 105.12%
- Activity (MDA-MB-468): 44.69%
- Activity (SF-268): 102.09%
- Activity (A498): 107.84%
- Activity (SK-MEL-5): 87.95%
- Activity (SN12C): 100.21%
- Activity (MDA-MB-231): 84.18%
- Activity (HCT-15): 105.75%
- Activity (A549): 94.77%
- Activity (RXF 393): 114.21%
- Activity (SK-OV-3): 99.21%
- Activity (COLO 205): 109.49%
- Activity (UACC-62): 88.07%
- Activity (NCI-H23): 89.88%
- Activity (NCI-H226): 97.3%
- Activity (SW-620): 91.04%
- Activity (PC-3): 84.44%
- Activity (HT-29): 95.99%
- Activity (LOX IMVI): 94.7%
- Activity (Hs-578T): 99.53%
- Activity (RPMI-8226): 95.28%
- Activity (KM12): 102.96%
- Activity (CAKI-1): 99.54%
- Activity (OVCAR-8): 101.14%
- Activity (NCI-H322M): 99.44%
- Activity (ACHN): 101.08%
- Activity (SF-295): 108.42%
- Activity (K562): 100.73%
- Activity (SK-MEL-28): 111.9%
- Activity (HCC 2998): 102.03%
- Activity (U-251): 84.62%
- Activity (HL-60(TB)): 108.47%
- Activity (CCRF-CEM): 91.91%
- Activity (SNB-75): 88.55%
- Activity (UO-31): 71.35%
- Activity (DU-145): 97.4%
- Activity (SK-MEL-2): 103.17%
- Activity (EKVX): 85.39%
- Activity (NCI-H460): 97.36%
- Activity (UACC-257): 86.41%

Structure (SMILES): O=c1/c(=C/c2ccccc2)sc2nc(-c3ccc(Cl)cc3Cl)nn12
- Activity (786-0): 111.75%
- Activity (MCF7): 100.42%
- Activity (HOP-62): 95.63%
- Activity (M14): 103.86%
- Activity (NCI-H522): 99.33%
- Activity (SF-539): 114.11%
- Activity (IGROV-1): 102.56%
- Activity [1]: 111.31%
- Activity (BT-549): 105.68%
- Activity (Malme-3M): 121.75%
- Activity (TK-10): 98.86%
- Activity (OVCAR-3): 105.06%
- Activity (HCT-116): 100.59%
- Activity (T47D): 94.32%
- Activity (MDA-MB-435): 119.04%
- Activity (SNB-19): 110.52%
- Activity (MDA-MB-468): 120.34%
- Activity (SF-268): 107.58%
- Activity (A498): 108.54%
- Activity (SK-MEL-5): 104.93%
- Activity (SN12C): 106.99%
- Activity (HCT-15): 112.75%
- Activity (A549): 103.15%
- Activity (RXF 393): 111.76%
- Activity (SK-OV-3): 98.1%
- Activity (COLO 205): 123.34%
- Activity (UACC-62): 103%
- Activity (NCI-H23): 102.55%
- Activity (NCI-H226): 100.81%
- Activity (SW-620): 101.67%
- Activity (PC-3): 115.99%
- Activity (LOX IMVI): 96.37%
- Activity (Hs-578T): 102.33%
- Activity (RPMI-8226): 111.72%
- Activity (KM12): 114.89%
- Activity (CAKI-1): 96.38%
- Activity (OVCAR-8): 102.91%
- Activity (NCI-H322M): 131.46%
- Activity (ACHN): 109.45%
- Activity (SF-295): 123.35%
- Activity (K562): 99.39%
- Activity (SK-MEL-28): 109.52%
- Activity (HCC 2998): 122.44%
- Activity (U-251): 105.46%
- Activity (CCRF-CEM): 105.93%
- Activity (SNB-75): 80.26%
- Activity (UO-31): 88.97%
- Activity (DU-145): 108.27%
- Activity (SK-MEL-2): 117.96%
- Activity (EKVX): 110.01%
- Activity (NCI-H460): 106.69%
- Activity (UACC-257): 83.86%
